pIC50: −log10 of the molar value.
Key:
human 11β-HSD2 = biological target: T1, human 11β-HSD2 (Homo sapiens, UniProt P80365); test: Cellular 11β-HSD2 enzyme inhibition assay (HEK293 stably transfected); assay type: cell-based; details: for inhibition at 10 µM: HEK293, 10 µM, read-out: HEK hHSD2 % inh at 10 µM
T1 construct: stably transfected with the full-length gene coding for human 11β-HSD2; expressed in transfected cells; host or cells: HEK293
T1 sequence (P80365 1-405): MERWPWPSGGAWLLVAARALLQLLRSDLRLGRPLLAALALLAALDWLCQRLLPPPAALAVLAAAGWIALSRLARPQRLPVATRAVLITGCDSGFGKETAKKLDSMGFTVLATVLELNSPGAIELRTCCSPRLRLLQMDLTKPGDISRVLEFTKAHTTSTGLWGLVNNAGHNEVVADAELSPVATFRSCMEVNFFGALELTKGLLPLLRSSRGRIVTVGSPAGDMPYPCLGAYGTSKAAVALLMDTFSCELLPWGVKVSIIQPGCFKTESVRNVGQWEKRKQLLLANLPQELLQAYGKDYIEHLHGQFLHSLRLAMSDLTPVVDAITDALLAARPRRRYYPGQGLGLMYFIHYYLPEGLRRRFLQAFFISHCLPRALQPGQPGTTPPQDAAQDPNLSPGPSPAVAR
Description: (§1) Selectivity over 11β-HSD2 was also assessed in a cell-based assay using the same methodology as before (HEK293 stably transfected with the 11β-HSD2 gene). […] Finally, metabolic stability was determined using HLM, which are widely used to predict the degree of primary metabolic clearance in the liver. Each compound was incubated over 30 min with HLM and the percentage of remaining compound after this incubation period was determined by calculating compound concentration after and before by LC/MS.
For measurement of inhibition of 11β-HSD2, HEK293 cells stably transfected with the full-length gene coding for human 11β-HSD2 were used. The protocol was the same as for the cellular 11β-HSD1 enzyme inhibition assay, only changing the substrate, this time cortisol, and the concentrations of the tested compounds, 10, 1, and 0.1 µM. Reported values are the average of 1–3 measurements.

[1] = Microsomal stability assay in human liver microsomes; assay type: in vitro ADME; details: remaining compound after 30-min incubation in HLM
Description: as §1
The microsomal stability of each compound was determined using human liver microsomes (HLM, Celsis In-vitro Technologies, Baltimore, MD, USA). Microsomes were thawed and diluted to a concentration of 2 mg/mL in 50 mM sodium phosphate buffer pH 7.4. Each compound was diluted in 4 mM NADPH (made in the phosphate buffer above) to a concentration of 10 µM. Two identical incubation plates were prepared to act as a 0 min and a 30 min time point assay. 30 µL of each compound dilution was added in duplicate to the wells of a U-bottom 96-well plate and warmed at 37 °C for approximately 5 min. Verapamil, lidocaine, and propranolol at 10 µM concentration were utilized as reference compounds in this experiment. Microsomes were also pre-warmed at 37 °C before the addition of 30 µL to each well of the plate resulting in a final concentration of 1 mg/mL. The reaction was terminated at the appropriate time point (0 or 30 min) by addition of 60 µL of ice-cold 0.3 M trichloroacetic acid (TCA) per well. The plates were centrifuged for 10 min at 112× g and the supernatant fraction transferred to a fresh U-bottom 96-well plate. Plates were sealed and frozen at −20 °C prior to MS analysis. LC-MS/MS was used to quantify the peak area response of each compound before and after incubation with HLM using MS tune settings established and validated for each compound. These peak intensity measurements were used to calculate the percentage remaining after incubation with HLM for each hit compound. Reported values are the average of 1–3 measurements.

human 11β-HSD1 [2] = biological target: T2, human 11β-HSD1 (Homo sapiens, UniProt P28845); test: 11β-HSD1 enzyme inhibition assay in human liver microsomes (3H-cortisone to 3H-cortisol, SPA); assay type: biochemical; details: for inhibition at 10 µM: read-out: hHSD1 % inh at 10 µM; for pIC50: read-out: hHSD1 IC50
T2 construct: The assay uses human liver microsomes (HLM), where the enzyme is expressed; tissue Celsis In-vitro Technologies; host or cells: mixed sex human liver microsomes
Description: A preliminary screen was performed using a human microsome assay with compounds at 10 µM in order to assess their potential inhibition of the target enzyme (Table 2). Percentage of inhibition was determined by measuring the conversion of ^3H-cortisone to ^3H-cortisol by capturing liberated ^3H-cortisol on anti-cortisol (HyTest Ltd., Turku, Finland)-coated scintillation proximity assay beads. The assay uses human liver microsomes (HLM), where the enzyme is expressed, and NADPH as the cofactor needed by the enzyme. Eight of the thirteen new compounds presented 100% inhibition of the human 11β-HSD1 in this single concentration assay, so dose-response curves were performed to get their IC50 values.
11β-HSD1 activity was determined in mixed sex, human liver microsomes (HLM, Celsis In-vitro Technologies) by measuring the conversion of ^3H-cortisone to ^3H-cortisol. Percentage inhibition was determined relative to a no inhibitor control. An amount of 5 μg of HLM were pre-incubated at 37 °C for 15 min with inhibitor and 1 mM NADPH in a final volume of 90 μL Krebs buffer. 10 μL of 200 nM ^3H-cortisone was then added followed by incubation at 37 °C for a further 30 min. The assay was terminated by rapid freezing on dry ice and ^3H-cortisone to ^3H-cortisol conversion determined in 50 μL of the defrosted reaction by capturing liberated ^3H-cortisol on anti-cortisol (HyTest Ltd)-coated scintillation proximity assay beads (protein A-coated YSi, GE Healthcare). Reported values are the average of 1–3 measurements. A nanomolar 11β-HSD1 inhibitor, UE2316, was added as a positive control within in each set of assays.

human 11β-HSD1 [3] = biological target: T2, human 11β-HSD1; test: Cellular 11β-HSD1 enzyme inhibition assay (HEK293 stably transfected, cortisol by LC/MS); assay type: cell-based; details: for HEK hHSD1 % inh at 10 µM: HEK293 transfected with human 11β-HSD1; for inhibition at 10 µM: HEK293 transfected with human 11β-HSD1, read-out: HEK hHSD1 % inh at 10 µM
Description: Those compounds with submicromolar IC50 values (4, 6, 8, 9 and 16) were further evaluated in terms of cellular potency, selectivity over 11β-HSD2, and metabolic stability as follows (Table 2, 5th, 6th, and 7th column, respectively). Cellular potency was assessed using Human Embryonic Kidney 293 (HEK293) cells stably transfected with the 11β-HSD1 gene. Cells were incubated with substrate (cortisone) and percentage of inhibition was determined by measuring the conversion of cortisone to cortisol by LC/MS. The results were in line with the previous results obtained in the microsomal assay.
The cellular 11β-HSD1 enzyme inhibition assay was performed using HEK293 cells stably transfected with the human 11β-HSD1 gene. Cells were incubated with substrate (cortisone) and product (cortisol) was determined by LC/MS. Cells were plated at 2 × 10^4 cells/well in a 96-well poly-D-lysine coated tissue culture microplate (Greiner Bio-one, Monroe, NC, USA) and incubated overnight at 37 °C in 5% CO2 […]. Compounds to be tested were solubilized in 100% dimethylsulfoxide (DMSO) at 10 mM and serially diluted in water and 10% DMSO to final concentration of 10 µM in 10% DMSO. Then 10 µL of each test dilution and 10 µL of 10% DMSO (for low and high control) were dispensed into the well of a new 96-well microplate (Greiner Bio-one). Medium was removed from the cell assay plate and 100 µL of Dulbecco’s Modified Eagle’s Medium DMEM solution (containing 1% penicillin, 1% streptomycin and 300 nM cortisone) added to each well. Cells were incubated for 2 h at 37 °C in 5% CO2 […]. Following incubation, medium was removed from each well into an Eppendorf containing 500 µL of ethyl acetate, mixed by vortex and incubated at r.t. for 5 min. A calibration curve of known concentrations of cortisol in assay medium was also set up and added to 500 µL of ethyl acetate, vortexed and incubated as above. The supernatant of each Eppendorf was removed to a 96-deep-well plate and dried down under […] at 65 °C. Each well was solubilized in 100 µL 70:30 H2O:acetonitrile (ACN) and removed to a 96-well V-bottomed plate for LC/MS analysis. Separation was carried out on a Sunfire 150 × 2.1 mm, […] column using a H2O:ACN gradient profile. Typical retention times were 2.71 min for cortisol and 2.80 min for cortisone. The peak area was calculated and the concentration of each compound determined from the calibration curve. Reported values are the average of 1–3 measurements.

[4] = HEK293 transfected with human 11β-HSD2
[5] = 10 µM, human liver microsomes, relative to no inhibitor control

T2 sequence (P28845 whole entry): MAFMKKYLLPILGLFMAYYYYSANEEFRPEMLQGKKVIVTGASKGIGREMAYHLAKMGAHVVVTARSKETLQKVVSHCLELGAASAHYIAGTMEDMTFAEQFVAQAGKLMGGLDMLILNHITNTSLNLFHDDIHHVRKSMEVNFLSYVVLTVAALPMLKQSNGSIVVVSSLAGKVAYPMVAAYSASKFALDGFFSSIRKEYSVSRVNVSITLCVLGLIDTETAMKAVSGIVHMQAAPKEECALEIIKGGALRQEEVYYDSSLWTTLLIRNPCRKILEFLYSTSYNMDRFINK

| Structure (SMILES) | melting point [°C] | inhibition at 10 µM (human 11β-HSD2; [4]) [%] | HLM % Parent [1] [%] | inhibition at 10 µM (human 11β-HSD1 [2]; [5]) [%] | pIC50 (human 11β-HSD1 [2]; human liver microsomes) | inhibition at 10 µM (human 11β-HSD1 [3]) [%] | other results |
| --- | --- | --- | --- | --- | --- | --- | --- |
| O=C(c1ccnc(Cl)c1)N1CC2C3C=CC(C4CC34)C2C1 (centres unmarked) [Compound 11, (4-Azatetracyclo[5.3.2. 0^2,6.0^8,10]dodec-11-en-4-yl)(2-chloropyridin-4-yl)methanone] | 135 to 136 | – | – | – | – | – | – |
| O=C(C1CC=CCC1)N1CC2C3C=CC(C4CC34)C2C1 (centres unmarked) [Compound 9, (4-Azatetracyclo[5.3.2. 0^2,6.0^8,10]dodec-11-en-4-yl)(cyclohex-3-en-1-yl)methanone] | 78 to 79 | 87 | 44 | 100 | 7.25 | 100 | HEK hHSD1 % inh at 10 µM (human 11β-HSD1 [3]): complete inhibition |
| O=C(c1ccc(Cl)nc1)N1CC2C3C=CC(C4CC34)C2C1 (centres unmarked) [Compound 10, (4-Azatetracyclo[5.3.2. 0^2,6.0^8,10]dodec-11-en-4-yl) (6-chloropyridin-3-yl)methanone] | 101 to 102 | – | – | – | – | – | – |
| O=C(c1ccccn1)N1CC2C3C=CC(C4CC34)C2C1 (centres unmarked) [Compound 5, (4-Azatetracyclo[5.3.2.0^2,6.0^8,10]dodec-11-en-4-yl)(pyridin-2-yl)methanone] | 110 to 111 | – | – | 100 | 5.37 | – | – |
| O=C(c1ccc(N2CCN(c3ccc(C(F)(F)F)cc3)CC2)nc1)N1CC2C3C=CC(C4CC34)C2C1 (centres unmarked) [Compound 15, (4-Azatetracyclo[5.3.2.0^2,6.0^8,10]dodec-11-en-4-yl)[6-[4-(4-trifluoromethyl)phenylpiperazin-1-yl]pyridin-3-yl]methanone] | 157 to 158 | – | – | 100 | 4.94 | – | – |
| N#Cc1ccc(N2CCN(c3ccc(C(=O)N4CC5C6C=CC(C7CC67)C5C4)cn3)CC2)cc1 (centres unmarked) [Compound 16, 4-[[4-[5-(4-Azatetracyclo[5.3.2. 0^2,6.0^8,10]dodec-11-en-4-yl)carbonyl]pyridin-2-yl]piperazin-1-yl]benzonitrile] | 160 to 161 | 54 | 13 | 100 | 6.42 | 100 | HEK hHSD2 % inh at 10 µM (human 11β-HSD2; 10 µM, HEK293 transfected with human 11β-HSD2): 53%; selectivity index over 11β-HSD2 (human 11β-HSD2; 11β-HSD2 IC50 versus 11β-HSD1 IC50): 30 fold; pIC50 (human 11β-HSD2; inferred from 54% inhibition at 10 µM in HEK293 cells, read-out: IC50 against 11β-HSD2): ~5.00; HEK hHSD1 % inh at 10 µM (human 11β-HSD1 [3]): complete inhibition |
| O=C(c1cccs1)N1CC2C3C=CC(C4CC34)C2C1 (centres unmarked) [Compound 7, (4-Azatetracyclo[5.3.2.0^2,6.0^8,10]dodec-11-en-4-yl)(thien-2-yl)methanone] | 104 to 105 | – | – | < 50 | – | – | hHSD1 % inh at 10 µM (human 11β-HSD1 [2]; [5]): 49% |
| Nc1c(Cl)cc(C(=O)N2CC3C4C=CC(C5CC45)C3C2)cc1Cl (centres unmarked) [Compound 8, (4-Amino-3,5-dichlorophenyl)(4-azatetracyclo[5.3.2. 0^2,6.0^8,10]dodec-11-en-4-yl)methanone] | 186 to 187 | 86 | 13 | 100 | 7.35 | 100 | HEK hHSD1 % inh at 10 µM (human 11β-HSD1 [3]): complete inhibition |
| CC(=O)N1CCC(C(=O)N2CC3C4C=CC(C5CC45)C3C2)CC1 (centres unmarked) [Compound 13, 1-[[4-(4-Azatetracyclo[5.3.2. 0^2,6.0^8,10]dodec-11-en-4-yl)carbonyl]piperidin-1-yl]ethan-1-one] | 134 to 135 | – | – | – | – | – | – |
| O=C(c1csc(-c2cn[nH]c2)c1)N1CCC(F)(c2ccccc2Cl)CC1 [UE2316, reference compound] | – | – | – | – | – | – | IC50 of positive control (human 11β-HSD1 [2]; positive control within each set of assays, normal range per ref 20): within the normal range |
| O=C(c1ccccc1)N1CC2C3C=CC(C4CC34)C2C1 (centres unmarked) [Compound 4, (4-Azatetracyclo[5.3.2.0^2,6.0^8,10]dodec-11-en-4-yl)(phenyl)methanone] | 65 to 66 | 84 | 85 | 100 | 6.26 | 77 | – |
| O=C(c1ccc(N2CCN(c3ccccc3)CC2)nc1)N1CC2C3C=CC(C4CC34)C2C1 (centres unmarked) [Compound 14, (4-Azatetracyclo[5.3.2.0^2,6.0^8,10]dodec-11-en-4-yl)[6-(4-phenylpiperazin-1-yl)pyridin-3-yl]methanone] | 90 to 91 | – | – | 100 | 5.26 | – | – |
| CN1CCC(C(=O)N2CC3C4C=CC(C5CC45)C3C2)CC1 (centres unmarked) [Compound 12, (4-Azatetracyclo[5.3.2. 0^2,6.0^8,10]dodec-11-en-4-yl)(1-methylpiperidin-4-yl)methanone] | 100 to 101 | – | – | – | – | – | – |
